{"source": "patent US11767310B2", "about": "“Nicotinamide RIPK1 inhibitors” (AbbVie Inc., priority 2021, dated 2023)", "assay_in_all_cases": "Kinase binding screen", "settings_in_all_cases": "read-out: Percent Control at 100 nM Compound Concentration", "key": {"BRK": {"target": "BRK (Homo sapiens (Human), UniProt Q13882)"}, "EPHA3": {"target": "EPHA3 (Homo sapiens (Human), UniProt P29320)"}, "FAK": {"target": "FAK (Homo sapiens (Human), UniProt Q05397)", "sequence (Q05397 whole entry)": "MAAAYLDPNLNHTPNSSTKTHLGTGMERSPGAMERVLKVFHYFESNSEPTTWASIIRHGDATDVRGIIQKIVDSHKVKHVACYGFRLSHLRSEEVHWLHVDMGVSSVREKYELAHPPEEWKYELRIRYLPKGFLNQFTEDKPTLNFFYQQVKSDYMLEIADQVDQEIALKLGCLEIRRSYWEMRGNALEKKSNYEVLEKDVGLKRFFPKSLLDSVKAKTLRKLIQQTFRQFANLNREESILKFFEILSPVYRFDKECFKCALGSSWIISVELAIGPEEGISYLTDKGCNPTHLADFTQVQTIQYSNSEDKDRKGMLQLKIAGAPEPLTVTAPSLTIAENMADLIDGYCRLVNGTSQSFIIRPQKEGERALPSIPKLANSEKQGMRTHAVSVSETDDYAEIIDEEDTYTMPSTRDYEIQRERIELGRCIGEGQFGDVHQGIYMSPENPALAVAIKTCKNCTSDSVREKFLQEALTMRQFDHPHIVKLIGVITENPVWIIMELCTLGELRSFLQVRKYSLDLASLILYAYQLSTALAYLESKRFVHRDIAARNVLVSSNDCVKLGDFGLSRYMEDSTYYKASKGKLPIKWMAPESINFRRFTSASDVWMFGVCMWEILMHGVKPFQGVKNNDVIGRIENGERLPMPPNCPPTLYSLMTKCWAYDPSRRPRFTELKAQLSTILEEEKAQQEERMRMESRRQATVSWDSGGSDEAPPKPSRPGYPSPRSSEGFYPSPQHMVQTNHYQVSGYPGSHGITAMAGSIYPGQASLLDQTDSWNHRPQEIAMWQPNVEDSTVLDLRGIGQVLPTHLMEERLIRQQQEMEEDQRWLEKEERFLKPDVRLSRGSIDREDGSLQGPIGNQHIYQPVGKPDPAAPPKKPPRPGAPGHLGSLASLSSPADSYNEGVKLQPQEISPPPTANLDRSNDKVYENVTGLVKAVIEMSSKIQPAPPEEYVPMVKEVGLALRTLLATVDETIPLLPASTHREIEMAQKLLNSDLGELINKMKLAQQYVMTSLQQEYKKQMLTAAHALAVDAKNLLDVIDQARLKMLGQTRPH"}, "FLT1": {"target": "FLT1 (Homo sapiens (Human), UniProt P17948)"}, "KIT(A829P)": {"target": "KIT(A829P) (Homo sapiens (Human), UniProt P10721, A829P)", "sequence (P10721 26-976 A829P)": "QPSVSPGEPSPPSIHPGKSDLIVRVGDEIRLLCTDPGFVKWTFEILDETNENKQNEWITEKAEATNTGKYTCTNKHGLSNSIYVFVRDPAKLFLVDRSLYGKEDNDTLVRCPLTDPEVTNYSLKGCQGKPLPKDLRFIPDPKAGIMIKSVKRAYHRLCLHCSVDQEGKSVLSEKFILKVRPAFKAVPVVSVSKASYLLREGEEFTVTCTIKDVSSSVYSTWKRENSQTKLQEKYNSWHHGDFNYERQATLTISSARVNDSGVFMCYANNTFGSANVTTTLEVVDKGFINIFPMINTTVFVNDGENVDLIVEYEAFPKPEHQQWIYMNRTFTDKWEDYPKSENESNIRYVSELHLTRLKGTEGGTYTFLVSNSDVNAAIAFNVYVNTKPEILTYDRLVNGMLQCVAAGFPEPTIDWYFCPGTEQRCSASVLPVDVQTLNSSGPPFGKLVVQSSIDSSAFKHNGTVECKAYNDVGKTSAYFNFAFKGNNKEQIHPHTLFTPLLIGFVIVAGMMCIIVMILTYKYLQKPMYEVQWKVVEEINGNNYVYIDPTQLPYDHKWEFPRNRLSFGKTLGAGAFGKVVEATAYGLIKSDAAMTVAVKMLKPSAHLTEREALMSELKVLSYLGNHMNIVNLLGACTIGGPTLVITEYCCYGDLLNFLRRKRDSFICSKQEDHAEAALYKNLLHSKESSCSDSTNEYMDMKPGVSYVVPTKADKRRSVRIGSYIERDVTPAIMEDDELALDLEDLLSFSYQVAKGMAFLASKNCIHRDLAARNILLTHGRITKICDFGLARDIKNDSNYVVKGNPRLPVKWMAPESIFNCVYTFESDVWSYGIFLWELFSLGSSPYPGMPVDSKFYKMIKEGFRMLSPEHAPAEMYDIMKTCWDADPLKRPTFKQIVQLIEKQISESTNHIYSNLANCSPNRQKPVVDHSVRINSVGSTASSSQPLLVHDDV"}, "MARK1": {"target": "MARK1 (Homo sapiens (Human), UniProt Q9P0L2)", "sequence (Q9P0L2 whole entry)": "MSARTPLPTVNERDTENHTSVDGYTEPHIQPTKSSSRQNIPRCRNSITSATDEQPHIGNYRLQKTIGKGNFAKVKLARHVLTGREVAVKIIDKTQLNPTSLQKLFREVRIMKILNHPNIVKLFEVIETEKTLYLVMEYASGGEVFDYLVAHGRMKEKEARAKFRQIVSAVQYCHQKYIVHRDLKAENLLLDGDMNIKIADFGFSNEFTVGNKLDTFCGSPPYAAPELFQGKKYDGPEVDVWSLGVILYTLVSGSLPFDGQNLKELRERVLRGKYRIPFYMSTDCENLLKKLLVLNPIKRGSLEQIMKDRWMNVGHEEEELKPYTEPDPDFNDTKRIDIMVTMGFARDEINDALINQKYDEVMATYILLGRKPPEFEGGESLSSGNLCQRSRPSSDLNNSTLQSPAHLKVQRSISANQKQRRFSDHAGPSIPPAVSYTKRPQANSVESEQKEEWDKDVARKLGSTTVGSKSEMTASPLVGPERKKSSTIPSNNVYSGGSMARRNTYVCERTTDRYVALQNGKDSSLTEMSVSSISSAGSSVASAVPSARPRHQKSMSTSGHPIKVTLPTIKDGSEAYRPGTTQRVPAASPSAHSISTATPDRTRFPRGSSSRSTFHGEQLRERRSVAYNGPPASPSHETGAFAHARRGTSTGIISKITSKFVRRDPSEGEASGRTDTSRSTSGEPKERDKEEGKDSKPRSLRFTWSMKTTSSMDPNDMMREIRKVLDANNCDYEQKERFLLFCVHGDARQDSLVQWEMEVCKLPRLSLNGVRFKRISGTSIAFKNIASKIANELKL"}, "MARK2": {"target": "MARK2 (Homo sapiens (Human), UniProt Q7KZI7)"}, "MEK4": {"target": "MEK4 (Homo sapiens (Human), UniProt P45985)"}, "MKNK1": {"target": "MKNK1 (Homo sapiens (Human), UniProt Q9BUB5)"}, "MY03A": {"target": "MY03A (Homo sapiens (Human), UniProt Q8NEV4)"}, "NDR2": {"target": "NDR2 (Homo sapiens (Human), UniProt Q9Y2H1)"}, "PIK3CA(E545A)": {"target": "PIK3CA(E545A) (Homo sapiens (Human), UniProt P42336, E545A)", "sequence (P42336 whole entry E545A)": "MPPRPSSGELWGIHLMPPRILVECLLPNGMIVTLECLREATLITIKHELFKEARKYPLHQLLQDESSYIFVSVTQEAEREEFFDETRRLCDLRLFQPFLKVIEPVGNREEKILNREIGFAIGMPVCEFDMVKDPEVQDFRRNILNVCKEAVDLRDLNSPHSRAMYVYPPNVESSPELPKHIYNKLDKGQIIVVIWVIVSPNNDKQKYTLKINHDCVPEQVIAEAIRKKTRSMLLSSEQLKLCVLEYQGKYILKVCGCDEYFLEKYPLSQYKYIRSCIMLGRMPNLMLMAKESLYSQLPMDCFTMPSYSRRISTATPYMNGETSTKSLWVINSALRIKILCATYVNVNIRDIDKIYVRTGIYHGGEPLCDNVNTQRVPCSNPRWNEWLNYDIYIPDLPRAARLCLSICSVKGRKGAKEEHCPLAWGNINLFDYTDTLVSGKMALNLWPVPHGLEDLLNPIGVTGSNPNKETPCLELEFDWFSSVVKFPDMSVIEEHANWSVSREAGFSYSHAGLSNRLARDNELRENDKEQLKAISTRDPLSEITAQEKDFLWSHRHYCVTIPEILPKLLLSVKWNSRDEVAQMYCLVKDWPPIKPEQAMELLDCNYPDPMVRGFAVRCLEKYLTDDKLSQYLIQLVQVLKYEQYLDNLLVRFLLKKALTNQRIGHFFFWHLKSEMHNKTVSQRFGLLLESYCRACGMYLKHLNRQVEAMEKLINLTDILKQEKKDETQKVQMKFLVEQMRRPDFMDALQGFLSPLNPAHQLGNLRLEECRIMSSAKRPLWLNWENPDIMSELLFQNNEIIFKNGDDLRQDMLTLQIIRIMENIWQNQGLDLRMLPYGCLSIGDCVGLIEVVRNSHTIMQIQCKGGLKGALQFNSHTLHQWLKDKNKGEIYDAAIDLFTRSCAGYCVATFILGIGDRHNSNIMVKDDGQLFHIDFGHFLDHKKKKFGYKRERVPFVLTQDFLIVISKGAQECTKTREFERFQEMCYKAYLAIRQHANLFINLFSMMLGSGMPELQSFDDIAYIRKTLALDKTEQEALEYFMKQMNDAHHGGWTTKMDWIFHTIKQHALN"}, "PIP5K2C": {"target": "PIP5K2C (Homo sapiens (Human), UniProt Q8TBX8)", "sequence (Q8TBX8 whole entry)": "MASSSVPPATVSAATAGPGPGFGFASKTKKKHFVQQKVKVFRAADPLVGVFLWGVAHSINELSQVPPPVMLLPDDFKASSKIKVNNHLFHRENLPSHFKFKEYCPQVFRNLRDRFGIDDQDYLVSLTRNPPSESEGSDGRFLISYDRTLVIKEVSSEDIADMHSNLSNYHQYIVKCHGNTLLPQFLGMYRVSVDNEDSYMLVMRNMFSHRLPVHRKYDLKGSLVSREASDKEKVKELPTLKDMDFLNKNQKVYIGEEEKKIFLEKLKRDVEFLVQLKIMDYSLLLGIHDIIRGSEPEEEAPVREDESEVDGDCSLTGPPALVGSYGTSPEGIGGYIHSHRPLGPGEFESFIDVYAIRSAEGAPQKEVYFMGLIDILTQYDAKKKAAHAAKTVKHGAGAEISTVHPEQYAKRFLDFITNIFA"}, "PKMYT1": {"target": "PKMYT1 (Homo sapiens (Human), UniProt Q99640)", "sequence (Q99640 whole entry)": "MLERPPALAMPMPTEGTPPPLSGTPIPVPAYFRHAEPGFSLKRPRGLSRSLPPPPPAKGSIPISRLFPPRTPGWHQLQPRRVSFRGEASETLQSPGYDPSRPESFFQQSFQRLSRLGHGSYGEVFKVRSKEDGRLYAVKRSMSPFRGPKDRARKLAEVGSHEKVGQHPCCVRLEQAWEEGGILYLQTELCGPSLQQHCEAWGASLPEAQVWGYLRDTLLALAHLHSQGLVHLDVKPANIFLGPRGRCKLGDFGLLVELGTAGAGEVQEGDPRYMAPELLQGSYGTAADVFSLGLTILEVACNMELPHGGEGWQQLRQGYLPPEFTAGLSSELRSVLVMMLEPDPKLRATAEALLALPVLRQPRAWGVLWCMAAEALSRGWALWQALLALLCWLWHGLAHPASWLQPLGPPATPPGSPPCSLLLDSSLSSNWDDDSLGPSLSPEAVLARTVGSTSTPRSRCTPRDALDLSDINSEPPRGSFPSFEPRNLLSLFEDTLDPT"}, "PRKCI": {"target": "PRKCI (Homo sapiens (Human), UniProt P41743)"}, "PRKCQ": {"target": "PRKCQ (Homo sapiens (Human), UniProt Q04759)"}, "SRMS": {"target": "SRMS (Homo sapiens (Human), UniProt Q9H3Y6)"}, "SRPK2": {"target": "SRPK2 (Homo sapiens (Human), UniProt P78362)"}, "STK36": {"target": "STK36 (Homo sapiens (Human), UniProt Q9NRP7)"}, "TGFBR2": {"target": "TGFBR2 (Homo sapiens (Human), UniProt P37173)"}, "TSSK3": {"target": "TSSK3 (Homo sapiens (Human), UniProt Q96PN8)", "sequence (Q96PN8 whole entry)": "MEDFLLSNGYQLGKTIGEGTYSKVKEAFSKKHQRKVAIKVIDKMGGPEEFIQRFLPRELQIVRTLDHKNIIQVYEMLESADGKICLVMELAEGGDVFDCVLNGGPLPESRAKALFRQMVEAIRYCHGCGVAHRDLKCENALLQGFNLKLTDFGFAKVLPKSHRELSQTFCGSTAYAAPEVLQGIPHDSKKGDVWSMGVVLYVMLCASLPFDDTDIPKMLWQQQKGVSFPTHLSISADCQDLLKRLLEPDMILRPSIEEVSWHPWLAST"}, "TYRO3": {"target": "TYRO3 (Homo sapiens (Human), UniProt Q06418)"}, "ULK3": {"target": "ULK3 (Homo sapiens (Human), UniProt Q6PHR2)"}}, "note": "Read-outs that look alike come from different tables or passages of the source.", "data": [{"smiles": "CN(C[C@@H](O)Cc1ccccc1)C(=O)c1cncc(C#Cc2cnn(C(F)F)c2)c1", "note": "[Example 2, (S)-5-((1-(difluoromethyl)-1H-pyrazol-4-yl)ethynyl)-N-(2-hydroxy-3-phenylpropyl)-N-methylnicotinamide]", "values": [{"measurement": "remaining activity at 0.1 µM", "setting": "BRK; BRK", "result": 100, "unit": "%"}, {"measurement": "remaining activity at 0.1 µM", "setting": "EPHA3; EPHA3", "result": 100, "unit": "%"}, {"measurement": "remaining activity at 0.1 µM", "setting": "FAK; FAK", "result": 100, "unit": "%"}, {"measurement": "remaining activity at 0.1 µM", "setting": "FLT1; FLT1", "result": 100, "unit": "%"}, {"measurement": "remaining activity at 0.1 µM", "setting": "KIT(A829P); KIT(A829P)", "result": 100, "unit": "%"}, {"measurement": "remaining activity at 0.1 µM", "setting": "MARK1; MARK1", "result": 100, "unit": "%"}, {"measurement": "remaining activity at 0.1 µM", "setting": "MARK2; MARK2", "result": 96, "unit": "%"}, {"measurement": "remaining activity at 0.1 µM", "setting": "MEK4; MEK4", "result": 100, "unit": "%"}, {"measurement": "remaining activity at 0.1 µM", "setting": "MKNK1; MKNK1", "result": 96, "unit": "%"}, {"measurement": "remaining activity at 0.1 µM", "setting": "MY03A; MY03A", "result": 99, "unit": "%"}, {"measurement": "remaining activity at 0.1 µM", "setting": "NDR2; NDR2", "result": 94, "unit": "%"}, {"measurement": "remaining activity at 0.1 µM", "setting": "PIK3CA(E545A); PIK3CA(E545A)", "result": 89, "unit": "%"}, {"measurement": "remaining activity at 0.1 µM", "setting": "PIP5K2C; PIP5K2C", "result": 63, "unit": "%"}, {"measurement": "remaining activity at 0.1 µM", "setting": "PKMYT1; PKMYT1", "result": 99, "unit": "%"}, {"measurement": "remaining activity at 0.1 µM", "setting": "PRKCI; PRKCI", "result": 96, "unit": "%"}, {"measurement": "remaining activity at 0.1 µM", "setting": "PRKCQ; PRKCQ", "result": 94, "unit": "%"}, {"measurement": "remaining activity at 0.1 µM", "setting": "SRMS; SRMS", "result": 100, "unit": "%"}, {"measurement": "remaining activity at 0.1 µM", "setting": "SRPK2; SRPK2", "result": 93, "unit": "%"}, {"measurement": "remaining activity at 0.1 µM", "setting": "STK36; STK36", "result": 100, "unit": "%"}, {"measurement": "remaining activity at 0.1 µM", "setting": "TGFBR2; TGFBR2", "result": 100, "unit": "%"}, {"measurement": "remaining activity at 0.1 µM", "setting": "TSSK3; TSSK3", "result": 82, "unit": "%"}, {"measurement": "remaining activity at 0.1 µM", "setting": "TYRO3; TYRO3", "result": 99, "unit": "%"}, {"measurement": "remaining activity at 0.1 µM", "setting": "ULK3; ULK3", "result": 97, "unit": "%"}]}, {"smiles": "CN(C[C@H](Cc1ccccc1)OP(=O)(O)O)C(=O)c1cncc(C#Cc2cnn(C(F)F)c2)c1", "note": "[Example 19, (S)-1-(5-((1-(difluoromethyl)-1H-pyrazol-4-yl)ethynyl)-N-methylnicotinamido)-3-phenylpropan-2-yl dihydrogen phosphate]", "values": [{"measurement": "remaining activity at 0.1 µM", "setting": "BRK", "result": 100, "unit": "%"}, {"measurement": "remaining activity at 0.1 µM", "setting": "EPHA3", "result": 100, "unit": "%"}, {"measurement": "remaining activity at 0.1 µM", "setting": "FAK", "result": 100, "unit": "%"}, {"measurement": "remaining activity at 0.1 µM", "setting": "FLT1", "result": 100, "unit": "%"}, {"measurement": "remaining activity at 0.1 µM", "setting": "KIT(A829P)", "result": 99, "unit": "%"}, {"measurement": "remaining activity at 0.1 µM", "setting": "MARK1", "result": 96, "unit": "%"}, {"measurement": "remaining activity at 0.1 µM", "setting": "MARK2", "result": 100, "unit": "%"}, {"measurement": "remaining activity at 0.1 µM", "setting": "MEK4", "result": 100, "unit": "%"}, {"measurement": "remaining activity at 0.1 µM", "setting": "MKNK1", "result": 91, "unit": "%"}, {"measurement": "remaining activity at 0.1 µM", "setting": "MY03A", "result": 93, "unit": "%"}, {"measurement": "remaining activity at 0.1 µM", "setting": "NDR2", "result": 84, "unit": "%"}, {"measurement": "remaining activity at 0.1 µM", "setting": "PIK3CA(E545A)", "result": 94, "unit": "%"}, {"measurement": "remaining activity at 0.1 µM", "setting": "PIP5K2C", "result": 74, "unit": "%"}, {"measurement": "remaining activity at 0.1 µM", "setting": "PKMYT1", "result": 100, "unit": "%"}, {"measurement": "remaining activity at 0.1 µM", "setting": "PRKCI", "result": 92, "unit": "%"}, {"measurement": "remaining activity at 0.1 µM", "setting": "PRKCQ", "result": 98, "unit": "%"}, {"measurement": "remaining activity at 0.1 µM", "setting": "SRMS", "result": 96, "unit": "%"}, {"measurement": "remaining activity at 0.1 µM", "setting": "SRPK2", "result": 100, "unit": "%"}, {"measurement": "remaining activity at 0.1 µM", "setting": "STK36", "result": 100, "unit": "%"}, {"measurement": "remaining activity at 0.1 µM", "setting": "TGFBR2", "result": 100, "unit": "%"}, {"measurement": "remaining activity at 0.1 µM", "setting": "TSSK3", "result": 100, "unit": "%"}, {"measurement": "remaining activity at 0.1 µM", "setting": "TYRO3", "result": 100, "unit": "%"}, {"measurement": "remaining activity at 0.1 µM", "setting": "ULK3", "result": 96, "unit": "%"}]}]}
